Experimental data reported in patent publication US20090054316A1, “AGENT FOR CONTROL OF FUNCTION OF ANTIGEN-PRESENTING CELL” (RIKEN, priority 2005, published 2009).

Assays:
dendritic cell = assay: Dendritic cell activation or inactivation, same in vitro system as Examples 1 and 2; format: cell-based, mouse; details: treatment with 1-10 μM
Method: (§1) Bone marrow cells were obtained from a C57BL/6 mouse (obtained from Clea Japan) and subjected to cell culture using an RPMI medium (SIGMA, R8758) supplemented with 10% FCS (EQUITECH-BIO Inc., #SFB-30-1388) and granulocyte macrophage colony stimulating factor (GM-CSF) in a 5% CO2 environment at 37° C. for 6 days to induce the differentiation of bone marrow-derived dendritic cells (BMDC). To this BMDC, TPEN (SIGMA, P4413) was added for 6 hours to 12 hours to obtain concentrations of 0-2 μM in the medium. Also prepared was a group in which lipopolysaccharide (LPS; 100 ng/mL; SIGMA, L2637, E. Coli O55:B5) was added for control of antigen-presenting cell activation. […] When the cells were treated with the zinc ion chelator, the expression of MHC class II molecule on BMDC was enhanced as with LPS.
In the same experiment (in vitro system) as Examples 1 and 2, dendritic cell activation or inactivation was observed by a treatment with 1-10 μM zinc ion or TPEN.

[1] = system: bone marrow-derived dendritic cells (BMDC); assay: Expression of MHC class I, class II and CD86 molecules on the cell surface of dendritic cells treated with a zinc ion chelator (FACS); format: cell-based, mouse; details: for expression of MHC class II molecule on BMDC: TPEN 0-2 μM for 6 to 12 hours (dose and treatment time dependency), LPS 100 ng/mL as activation control, FACS
Method: Dendritic cells, a type of antigen-presenting cells, were treated with N,N,N′,N′-tetrakis(2-pyridylmethyl)ethylenediamine (TPEN), a zinc ion chelator, and examined for the expression of MHC class I molecule, class II molecule and CD86 molecule on the cell surface.
as §1

[2] = dendritic cells treated with zinc ion chelator, FIG. 1

Row | Compound | dendritic cell activation or inactivation (dendritic cell) | expression of MHC class II molecule on BMDC [1] | expression of CD86 molecule on the cell surface [1, 2] | expression of MHC class I molecule on the cell surface [1, 2]
1 | c1ccc(CN(CCN(Cc2ccccn2)Cc2ccccn2)Cc2ccccn2)nc1 [TPEN, N,N,N′,N′-tetrakis(2-pyridylmethyl)ethylenediamine] | observed | enhanced | enhanced | enhanced
2 | O=S(=O)([O-])[O-].[Zn+2] [zinc ion, ZnSO4] | observed |  |  | 
3 | lipopolysaccharide [LPS] |  | enhanced |  | 
